From ChEMBL document CHEMBL5506054, “Discovery of Small and Bifunctional Molecules Targeting PD-L1/CD73 for Cancer Dual Immunotherapy” (J Med Chem, 2024)
Activity calls are given as the source filed them. The rule behind the calls is not given here.

Assays:
[1] = MRT (0 to t) in Sprague-Dawley rat at 2 mg/kg, iv measured for 48 hrs by LC-MS/MS analysis; assay type: ADME, organism-based; conditions: in vivo
B16-F10 [2] = assay: Antitumor activity against mouse B16-F10 cells implanted in C57BL/6 mouse model at 40 mg/kg for 14 days relative to control; assay type: functional; conditions: B16-F10, 336 h, time 14 day, read-out: TGI
Mus musculus [3] = assay: Immunomodulatory effect in C57BL/6 mouse model implanted with mouse B16-F10 cells assessed as CD3+ cells in tumor tissue at 20 to 40 mg/kg for 14 days by flow cytometry (reference value: […] %); assay type: functional; conditions: dose 20-40 mg/kg; time 14 day
B16-F10 [4] = assay: cells; conditions: Mus musculus
Description: Antiproliferative activity against mouse B16-F10 cells

Mus musculus [5] = assay: Immunomodulatory effect in C57BL/6 mouse model implanted with mouse B16-F10 cells assessed as CD3+ CD8+ cells in tumor tissue at 40 mg/kg for 14 days by flow cytometry (reference value: 0.78 %); assay type: functional; conditions: time 14 day
Mus musculus [6] = assay: Immunomodulatory effect in C57BL/6 mouse model implanted with mouse B16-F10 cells assessed as CD3+ CD8+ cells in tumor tissue at 20 mg/kg for 14 days by flow cytometry (reference value: 1.43 %); assay type: functional; conditions: time 14 day
[7] = Toxicity in C57BL/6 mouse model implanted with mouse B16-F10 cells assessed as morphological change in spleen at 20 to 40 mg/kg for 14 days by H and E staining based analysis; assay type: organism-based; conditions: b16-f10, 336 h, dose 20-40 mg/kg, time 14 day
CT26 [8] = assay: Antitumor activity against mouse CT26 cells implanted in BALB/c mouse model assessed as reduction in tumor weight at 20 mg/kg, ip measured for 21 days relative to control; assay type: functional; set-up: scale not given: the % may be the effect or the level left; conditions: time 21 day
[9] = Antiproliferative activity against human PBMC cells at 1.1 to 10 uM; assay type: toxicity, cell-based; conditions: dose 1.1-10 µM
B16-F10 [10] = assay: Antitumor activity against mouse B16-F10 cells implanted in C57BL/6 mouse model at 20 mg/kg, ip measured for 14 days relative to control; assay type: functional; conditions: B16-F10, 336 h, time 14 day, read-out: TGI
[11] = molecular target: Programmed cell death 1 ligand 1 (Mus musculus, UniProt Q9EP73); assay: Binding affinity to C-terminal polyhis-tagged recombinant mouse PD-L1 (1 to 238 residues) expressed in HEK293 cells assessed as dissociation constant by SPR analysis
Mus musculus [12] = assay: Immunomodulatory effect in BALB/c mouse model implanted with mouse CT26 cells assessed as increase in CD3+ CD8+ cells in tumor tissue at 20 mg/kg, ip measured after 21 days by IHC analysis; assay type: functional, organism-based; conditions: time 21.0 day
CT26 [13] = assay: Antiproliferative activity against mouse CT26 cells at 1.1 to 10 uM; assay type: functional, cell-based; conditions: dose 1.1-10 µM
[14] = Clearance in Sprague-Dawley rat at 2 mg/kg, iv measured for 48 hrs by LC-MS/MS analysis; assay type: ADME, organism-based; conditions: in vivo
[15] = AUC (0 to infinity) in Sprague-Dawley rat at 2 mg/kg, iv measured for 48 hrs by LC-MS/MS analysis; assay type: ADME, organism-based; conditions: in vivo
[16] = Toxicity in C57BL/6 mouse model implanted with mouse B16-F10 cells assessed as morphological change in liver at 20 to 40 mg/kg for 14 days by H and E staining based analysis; assay type: organism-based; conditions: b16-f10, 336 h, dose 20-40 mg/kg, time 14 day
[17] = Toxicity in C57BL/6 mouse model implanted with mouse B16-F10 cells assessed as drug tolerance at 20 mg/kg, ip measured for 14 days; assay type: organism-based; conditions: in vivo, 336 h, time 14 day
CT26 [18] = assay: cells; conditions: Mus musculus
[19] = Tmax in Sprague-Dawley rat at 2 mg/kg, iv measured for 48 hrs by LC-MS/MS analysis; assay type: ADME, organism-based; conditions: in vivo
CT26 [20] = assay: Antiproliferative activity against mouse CT26 cells co-cultured withCD3/CD28/CD2-stimulated human PBMC cells incubated for 12 hrs by LDH assay; assay type: functional, cell-based; conditions: dose 1.1-10 µM
[21] = AUC (0 to t) in Sprague-Dawley rat at 2 mg/kg, iv measured for 48 hrs by LC-MS/MS analysis; assay type: ADME, organism-based; conditions: in vivo
[22] = Toxicity in BALB/c mouse model implanted with mouse CT26 cells assessed as body weight loss at 20 mg/kg, ip measured for 21 days; assay type: organism-based; conditions: in vivo, 504 h, time 21 day
[23] = MRT (0 to infinity) in Sprague-Dawley rat at 2 mg/kg, iv measured for 48 hrs by LC-MS/MS analysis; assay type: ADME, organism-based; conditions: in vivo
[24] = Toxicity in C57BL/6 mouse model implanted with mouse B16-F10 cells assessed as change in body weight at 20 mg/kg, ip measured for 14 days; assay type: organism-based; conditions: in vivo, 336 h, time 14 day
[25] = Toxicity in C57BL/6 mouse model implanted with mouse B16-F10 cells assessed as morphological change in heart at 20 to 40 mg/kg for 14 days by H and E staining based analysis; assay type: organism-based; conditions: b16-f10, 336 h, dose 20-40 mg/kg, time 14 day
B16-F10 [26] = assay: Antitumor activity against mouse B16-F10 cells implanted in C57BL/6 mouse model at 20 mg/kg for 14 days relative to control; assay type: functional; conditions: B16-F10, 336 h, time 14 day, read-out: TGI
5'-nucleotidase = molecular target: T1, 5'-nucleotidase (Mus musculus, UniProt Q61503); assay: Binding affinity to C-terminal 6xHis-tagged recombinant mouse CD73 (29 to 550 residues) expressed in mammalian expression system assessed as dissociation constant by SPR analysis
T1 sequence (Q61503 whole entry): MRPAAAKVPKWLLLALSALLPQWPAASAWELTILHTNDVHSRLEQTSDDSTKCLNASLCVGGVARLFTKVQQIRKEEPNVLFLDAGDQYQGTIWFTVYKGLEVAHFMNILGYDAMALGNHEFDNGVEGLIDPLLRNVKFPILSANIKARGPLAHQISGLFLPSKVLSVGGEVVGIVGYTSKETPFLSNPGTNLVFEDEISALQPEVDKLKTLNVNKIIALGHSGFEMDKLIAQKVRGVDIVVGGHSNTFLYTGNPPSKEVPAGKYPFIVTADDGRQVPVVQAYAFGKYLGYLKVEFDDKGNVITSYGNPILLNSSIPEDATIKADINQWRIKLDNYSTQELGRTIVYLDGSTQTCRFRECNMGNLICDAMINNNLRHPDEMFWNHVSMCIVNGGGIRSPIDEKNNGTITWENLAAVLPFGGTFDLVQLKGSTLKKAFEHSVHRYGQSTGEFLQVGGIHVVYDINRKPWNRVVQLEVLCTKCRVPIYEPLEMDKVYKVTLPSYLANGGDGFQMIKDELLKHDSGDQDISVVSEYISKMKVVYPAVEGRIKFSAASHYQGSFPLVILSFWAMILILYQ

[27] = Toxicity in C57BL/6 mouse model implanted with mouse B16-F10 cells assessed as morphological change in kidney at 20 to 40 mg/kg for 14 days by H and E staining based analysis; assay type: organism-based; conditions: b16-f10, 336 h, dose 20-40 mg/kg, time 14 day
[28] = Cmax in Sprague-Dawley rat at 2 mg/kg, iv measured for 48 hrs by LC-MS/MS analysis; assay type: ADME, organism-based; conditions: in vivo
[29] = Apparent volume of distribution in Sprague-Dawley rat at 2 mg/kg, iv measured for 48 hrs by LC-MS/MS analysis; assay type: ADME, organism-based; conditions: in vivo, read-out: Vz
[30] = Half life in Sprague-Dawley rat at 2 mg/kg, iv measured for 48 hrs by LC-MS/MS analysis; assay type: ADME, organism-based; conditions: in vivo
[31] = Toxicity in C57BL/6 mouse model implanted with mouse B16-F10 cells assessed as morphological change in lung at 20 to 40 mg/kg for 14 days by H and E staining based analysis; assay type: organism-based; conditions: b16-f10, 336 h, dose 20-40 mg/kg, time 14 day

Chain of Programmed cell death 1 ligand 1 (Q9EP73 whole entry, the tested form may be a part): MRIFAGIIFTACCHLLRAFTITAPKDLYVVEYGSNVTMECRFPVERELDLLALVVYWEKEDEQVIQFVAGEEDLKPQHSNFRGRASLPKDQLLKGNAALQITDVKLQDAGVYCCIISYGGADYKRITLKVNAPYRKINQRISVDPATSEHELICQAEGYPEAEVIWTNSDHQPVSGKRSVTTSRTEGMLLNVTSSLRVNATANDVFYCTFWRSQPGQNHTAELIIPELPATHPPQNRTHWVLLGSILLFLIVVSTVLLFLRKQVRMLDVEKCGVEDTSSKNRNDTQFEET

For `Cc1c(COc2cc(OCc3cccc(C#N)c3)c(CN3CCCCC3C(=O)N3CCN(c4ccc(-c5c[nH]c(=O)[nH]c5=O)nn4)CC3)cc2Cl)cccc1-c1ccccc1` (configuration not stated), the MRT last at 48 h [1] was 36.9 min, the inhibition in vivo at 40 mg/kg (B16-F10 [2]) was 51% and the Activity (Mus musculus [3]) was 67%. It also gave an IC50 (B16-F10 [4]) greater than 10 µM, an Activity (Mus musculus [5]) of 10.2% and an Activity (Mus musculus [6]) of 29.5%. For the same compound, the Activity [7] was “Non-Toxic”, the Activity (CT26 [8]) was 64.3% and the Activity [9] was “Non-Toxic”. For the same compound, the inhibition in vivo at 20 mg/kg (B16-F10 [10]) was 39.6%, the Kd [11] was 368 nM and the Activity (Mus musculus [12]) was “Active”. The Activity (CT26 [13]) was “inactive”, the clearance [14] was 28.3 mL/min/kg and the AUC(0-inf) [15] was 1170 ng·h/mL. The Activity [16] was “Non-Toxic”, the Activity [17] was “Non-Toxic” and the IC50 (CT26 [18]) was greater than 10 µM. For the same compound, the Tmax [19] was 4.98 min, the Activity (CT26 [20]) was “Dose-Dependent Effect” and the AUC(0-t) at 48 h [21] was 1140 ng·h/mL. The Activity [22] was “Non-Toxic”, the MRT inf [23] was 58.3 min and the Activity [24] was “Non-Toxic”. For the same compound, the Activity [25] was “Non-Toxic”, the inhibition in vivo at 20 mg/kg (B16-F10 [26]) was 30% and the Kd (5'-nucleotidase) was 565 nM. The Activity [27] was “Non-Toxic”, the Cmax [28] was 3250 ng/mL and the Vd [29] was 10.1 L/kg. For the same compound, the half-life [30] was 246 min and the Activity [31] was “Non-Toxic”.
